Measured values as given in PubChem BioAssay AID330 (DTP/NCI, 2004).
“And” between values parts separate entries of the source, which are not always exact repeats. Equal values may be shown once. Inconclusive results and toxic doses are left out.

System: P388 leukemia ip, CD2F1 mice, survival T/C
Experiment: NCI In Vivo Anticancer Drug Screen. Data for tumor model P388 Leukemia (intraperitoneal) in CD2F1 (CDF1) mice
Details: endpoint: median survival time, higher = longer survival
Experimental: The antitumor activity of compounds was measured in mice bearing transplantable tumors. Survival or tumor size were measured and the results are expressed as the measurement made in the treated group (T) divided by the measurement made in the vehicle treated control group (C). The tumor model used in this assay is P388 Leukemia (intraperitoneal) in CD2F1 (CDF1) mice

[1] = dose: 12.5 mg/kg/injection, schedule: Q01DX009 (ip), vehicle: saline with Tween-80
[2] = dose: 25.0 mg/kg/injection, schedule: Q01DX009 (ip), vehicle: saline with Tween-80
[3] = dose: 50.0 mg/kg/injection, schedule: Q01DX009 (ip), vehicle: saline with Tween-80
[4] = dose: 100.0 mg/kg/injection, schedule: Q01DX009 (ip), vehicle: saline with Tween-80
[5] = dose: 60.0 mg/kg/injection, schedule: Q01DX005 (ip), vehicle: saline with Tween-80
[6] = dose: 120.0 mg/kg/injection, schedule: Q01DX005 (ip), vehicle: saline with Tween-80
[7] = dose: 240.0 mg/kg/injection, schedule: Q01DX005 (ip), vehicle: saline with Tween-80
[8] = dose: 100.0 mg/kg/injection, schedule: Q01DX001 (ip), vehicle: saline with Tween-80
[9] = dose: 200.0 mg/kg/injection, schedule: Q01DX001 (ip), vehicle: saline with Tween-80
[10] = dose: 400.0 mg/kg/injection, schedule: Q01DX001 (ip), vehicle: saline with Tween-80
[11] = dose: 25.0 mg/kg/injection, schedule: Q01DX005 (ip), vehicle: saline with Tween-80
[12] = dose: 50.0 mg/kg/injection, schedule: Q01DX005 (ip), vehicle: saline with Tween-80
[13] = dose: 100.0 mg/kg/injection, schedule: Q01DX005 (ip), vehicle: saline with Tween-80

O=c1[nH]c2ccc(Br)cc2c(=O)o1 was tested, and the T/C [1] was 104 % of control, the T/C [2] was 102 % of control and the T/C [3] was 110 % of control. For the same compound, the T/C (dose: 100.0 mg/kg/injection, schedule: Q01DX001 (ip), vehicle: other) was 100 % of control, the T/C [4] was 114 % of control and the T/C (dose: 200.0 mg/kg/injection, schedule: Q01DX001 (ip), vehicle: other) was 100 % of control. For the same compound, the T/C (dose: 400.0 mg/kg/injection, schedule: Q01DX001 (ip), vehicle: other) was 95 % of control.

COc1c(-c2ccccc2)c(=O)n2c3cc(C)c(C)cc3n(C)c2c1C#N was tested, and the T/C [5] was 100 % of control, the T/C [6] was 86 % of control and the T/C [7] was 89 % of control.

In the case of CN1CCCN(C)C1c1ccc(Cl)cc1, the T/C (dose: 12.5 mg/kg/injection, schedule: Q01DX009 (ip), vehicle: saline sonified) is reported as 90 % of control and the T/C (dose: 25.0 mg/kg/injection, schedule: Q01DX009 (ip), vehicle: saline sonified) is reported as 90 % of control.

In the case of CC(C)(C)Nc1nc2ccccc2c(=O)o1, the T/C [8] is reported as 101 % of control, the T/C [9] is reported as 106 % of control and the T/C [10] is reported as 116 % of control.

Nc1ccccc1SC(C[N+](=O)[O-])c1ccc2c(c1)OCO2 (configuration not stated) was tested, and the T/C [5] was 115 % of control and the T/C [6] was 114 % of control.

For O=C(NC(Cc1ccccc1)C(=O)CBr)OCc1ccccc1 (configuration not stated), the T/C (dose: 12.5 mg/kg/injection, schedule: Q01DX001 (ip), vehicle: saline with Tween-80) was 100 % of control, the T/C (dose: 25.0 mg/kg/injection, schedule: Q01DX001 (ip), vehicle: saline with Tween-80) was 104 % of control and the T/C (dose: 50.0 mg/kg/injection, schedule: Q01DX001 (ip), vehicle: saline with Tween-80) was 109 % of control.

With Oc1c(Br)cc(Br)cc1/C=N/NC(=S)NC12CC3CC(CC(C3)C1)C2 the T/C (dose: 30.0 mg/kg/injection, schedule: Q01DX005 (ip), vehicle: Klucel (hydroxypropylcellulose) (HPC)) was 87 % of control, the T/C (dose: 60.0 mg/kg/injection, schedule: Q01DX005 (ip), vehicle: Klucel (hydroxypropylcellulose) (HPC)) was 87 % of control and the T/C (dose: 120.0 mg/kg/injection, schedule: Q01DX005 (ip), vehicle: Klucel (hydroxypropylcellulose) (HPC)) was 88 % of control and 93 % of control. The T/C (dose: 240.0 mg/kg/injection, schedule: Q01DX005 (ip), vehicle: Klucel (hydroxypropylcellulose) (HPC)) was 89 % of control.

With CC1CCCCN1C (configuration not stated) the T/C [11] was 90 % of control, the T/C [12] was 91 % of control and the T/C [13] was 89 % of control.

C1CC[N-]CC1.C1CC[N-]CC1.[Cl][Pt+2][Cl] was tested, and the T/C (dose: 25.0 mg/kg/injection, schedule: Q01DX005 (ip), vehicle: Klucel (hydroxypropylcellulose) (HPC)) was 119 % of control and 120 % of control.

For CC1(C)N=C(N)N=C(N)N1c1ccc(CCCCc2ccc(S(=O)(=O)F)cc2)cc1, the T/C (dose: 12.0 mg/kg/injection, schedule: Q01DX009 (ip), vehicle: saline sonified) was 152 % of control, the T/C (dose: 18.0 mg/kg/injection, schedule: Q01DX009 (ip), vehicle: saline sonified) was 152 % of control and the T/C [3] was 95 % of control. The T/C (dose: 50.0 mg/kg/injection, schedule: Q04DX003 (ip), vehicle: saline with Tween-80) was 100 % of control.

In the case of CSC1CC(C)(O)Cc2cc3c(c(O)c21)C(=O)c1c(O)cc2c(c1C3=O)OC1OC2(C)C(O)C(N(C)C)C1O (configuration not stated), the T/C (dose: 16.0 mg/kg/injection, schedule: Q01DX009 (ip), vehicle: other) is reported as 100 % of control.

In the case of O=C1C=C(SCCO)C(=O)c2ccccc21, the T/C (dose: 0.62 mg/kg/injection, schedule: Q01DX009 (ip), vehicle: saline with Tween-80) is reported as 100 % of control, the T/C (dose: 1.25 mg/kg/injection, schedule: Q01DX009 (ip), vehicle: saline with Tween-80) is reported as 100 % of control and the T/C (dose: 2.5 mg/kg/injection, schedule: Q01DX009 (ip), vehicle: saline with Tween-80) is reported as 95 % of control.

NC(=O)c1cnc(N)nc1 was tested, and the T/C (dose: 6.25 mg/kg/injection, schedule: Q01DX009 (ip), vehicle: saline with Tween-80) was 93 % of control, the T/C [1] was 91 % of control and the T/C [2] was 98 % of control. The T/C [3] was 94 % of control, the T/C [4] was 98 % of control and the T/C (dose: 200.0 mg/kg/injection, schedule: Q01DX009 (ip), vehicle: saline with Tween-80) was 106 % of control.

In the case of COc1cc(N=Nc2ccccc2)cc(/C=N\NC(=S)Nc2ccccc2)c1O, the T/C [12] is reported as 91 % of control and the T/C [13] is reported as 94 % of control.

For CCOC(=O)C1=CNc2ccccc2N=C1N, the T/C (dose: 6.25 mg/kg/injection, schedule: Q01DX005 (ip), vehicle: saline with Tween-80) was 112 % of control, the T/C (dose: 12.5 mg/kg/injection, schedule: Q01DX005 (ip), vehicle: saline with Tween-80) was 115 % of control and the T/C [11] was 113 % of control.

For O=C1C(=O)c2ccccc2C(O)=C1CCCc1ccc(OCc2ccccc2)cc1, the T/C (dose: 5.0 mg/kg/injection, schedule: Q01DX009 (ip), vehicle: saline with Tween-80) was 107 % of control, the T/C (dose: 10.0 mg/kg/injection, schedule: Q01DX009 (ip), vehicle: saline with Tween-80) was 117 % of control and the T/C (dose: 20.0 mg/kg/injection, schedule: Q01DX009 (ip), vehicle: saline with Tween-80) was 108 % of control. For the same compound, the T/C (dose: 40.0 mg/kg/injection, schedule: Q01DX009 (ip), vehicle: saline with Tween-80) was 105 % of control.

In the case of CN(C(=S)SSC(=S)N(C)c1ccccc1)c1ccccc1, the T/C (dose: 25.0 mg/kg/injection, schedule: Q01DX009 (ip), vehicle: Klucel (hydroxypropylcellulose) (HPC)) is reported as 91 % of control, the T/C (dose: 50.0 mg/kg/injection, schedule: Q01DX009 (ip), vehicle: Klucel (hydroxypropylcellulose) (HPC)) is reported as 93 % of control and the T/C (dose: 100.0 mg/kg/injection, schedule: Q01DX009 (ip), vehicle: Klucel (hydroxypropylcellulose) (HPC)) is reported as 97 % of control. For the same compound, the T/C (dose: 200.0 mg/kg/injection, schedule: Q01DX009 (ip), vehicle: Klucel (hydroxypropylcellulose) (HPC)) was 101 % of control.

With Clc1ccc(-c2n[se]c(-c3ccc(Cl)cc3)n2)cc1 the T/C [2] was 87 % of control and the T/C [3] was 89 % of control.

Cc1cc(C)c(N(C)C)c(C)c1 was tested, and the T/C (dose: 100.0 mg/kg/injection, schedule: Q04DX002 (ip), vehicle: saline with Tween-80) was 109 % of control and the T/C (dose: 200.0 mg/kg/injection, schedule: Q04DX002 (ip), vehicle: saline with Tween-80) was 110 % of control.

CC(NNC(=S)N1CCN(c2ccccn2)CC1)c1nccc2ccccc12 (configuration not stated) was tested, and the T/C (dose: 12.5 mg/kg/injection, schedule: Q04DX002 (ip), vehicle: Klucel (hydroxypropylcellulose) (HPC)) was 100 % of control, the T/C (dose: 25.0 mg/kg/injection, schedule: Q04DX002 (ip), vehicle: Klucel (hydroxypropylcellulose) (HPC)) was 100 % of control and the T/C (dose: 50.0 mg/kg/injection, schedule: Q04DX002 (ip), vehicle: Klucel (hydroxypropylcellulose) (HPC)) was 103 % of control. The T/C (dose: 100.0 mg/kg/injection, schedule: Q04DX002 (ip), vehicle: Klucel (hydroxypropylcellulose) (HPC)) was 122 % of control and 124 % of control and the T/C (dose: 200.0 mg/kg/injection, schedule: Q04DX002 (ip), vehicle: Klucel (hydroxypropylcellulose) (HPC)) was 96 % of control.

With COc1cccc2c1C(=O)c1c(O)c3c(c(O)c1C2=O)CC(O)(C(C)=O)CC3OC1CC(N=CN(C)C)C(O)C(C)O1 (configuration not stated) the T/C (dose: 3.13 mg/kg/injection, schedule: Q04DX003 (ip), vehicle: distilled water + Tween-80) was 103 % of control, the T/C (dose: 6.25 mg/kg/injection, schedule: Q04DX003 (ip), vehicle: distilled water + Tween-80) was 110 % of control and the T/C (dose: 12.5 mg/kg/injection, schedule: Q04DX003 (ip), vehicle: distilled water + Tween-80) was 99 % of control and 119 % of control. For the same compound, the T/C (dose: 50.0 mg/kg/injection, schedule: Q04DX003 (ip), vehicle: distilled water + Tween-80) was 123 % of control.

COc1ccc(/C=C/C(CCN(C)C)=N/NC(=S)Nc2ccc(Cl)cc2)cc1 was tested, and the T/C [8] was 89 % of control, the T/C [9] was 90 % of control and the T/C [10] was 90 % of control.

In the case of CCOC(=O)c1csc(Br)n1, the T/C [5] is reported as 104 % of control, the T/C [6] is reported as 100 % of control and the T/C [7] is reported as 100 % of control.

For NNC(=O)c1c(O)ccc2ccccc12, the T/C [12] was 95 % of control, the T/C [13] was 93 % of control and the T/C (dose: 200.0 mg/kg/injection, schedule: Q01DX005 (ip), vehicle: saline with Tween-80) was 100 % of control.

With CC(=O)OCC1OC(n2cnc3c(Cl)nc(Cl)nc32)CC(OC(C)=O)C1OC(C)=O (configuration not stated) the T/C (dose: 50.0 mg/kg/injection, schedule: Q01DX005 (ip), vehicle: Klucel (hydroxypropylcellulose) (HPC)) was 93 % of control, the T/C (dose: 100.0 mg/kg/injection, schedule: Q01DX005 (ip), vehicle: Klucel (hydroxypropylcellulose) (HPC)) was 99 % of control and the T/C (dose: 200.0 mg/kg/injection, schedule: Q01DX005 (ip), vehicle: Klucel (hydroxypropylcellulose) (HPC)) was 91 % of control.

NC(CC(=O)NO)C(=O)O (configuration not stated) was tested, and the T/C (dose: 200.0 mg/kg/injection, schedule: Q01DX009 (ip), vehicle: saline) was 110 % of control and the T/C (dose: 400.0 mg/kg/injection, schedule: Q01DX009 (ip), vehicle: saline) was 120 % of control.
